The values below come from patent US20240093034A1, “FLUORESCENT DYES” (EXOPHARM LIMITED, priority 2020, published 2024).

Structures are written as SMILES.

The subject of one experiment is platelet-derived EVs. Kind of experiment: Labelling of extracellular vesicles with dyes (Superose 6 HPLC, UV and FLD detection). The settings on record: EV + 2 μM dye. As to the method: Labelling of extracellular vesicles (EVs) with dyes 1-10 was performed according to the following procedure. 20 μL of platelet-derived EVs were incubated in HPLC vials with or without each dye at a final concentration of 2 μM dye, the dye stock solution being made up in water. For negative controls, an equivalent volume of the diluent solution was added to the EV solution. The sample was mixed gently. Each sample was subsequently incubated for 1 hr at 37° C. Samples were transferred and stored in the autosampler set at 4° C. A batch table was setup that injected unlabelled EVs prior to labelled EVs. A blank injection was run after each labelled EV experiment to ensure there was no carryover. 15 μL of each sample was injected onto a Superose 6 Increase column (3.2/300) from Cytiva. The flow rate was set at 0.15 mL min* The Shimadzu BioHPLC was run in isocratic mode with Buffer A: 1× PBS (phosphate-buffered saline), pH 7.4, 100 nm filtered. The column oven temperature was set at 30° C. Total run duration was 30 min. Data was collected using two detectors. The PDA (UV detector) was set to scan from 190-800 nm and a channel of the FLD (fluorescence detector) was set at 562 nm/583 nm (Ex/Em). Titration experiments were conducted to confirm that excess dye was removed. The areas of the void peaks from the 214 nm absorption and the 583 nm emission were calculated by the LabSolutions software using the manual integration function. To normalise the fluorescent signal, the total fluorescent area was divided by the UV 214 nm area. This ratio can be used to rank each dye, with higher ratios indicative of greater incorporation.

The next experiment deals with MSC-EVs. Put plainly: Dye labelling of MSC-EV preparations analysed by imaging flow cytometry (IFCM). As to the method:
MSC-EVs were prepared form human platelet lysate containing MSC-conditioned media by polyethylene glycol 6000 precipitation followed by ultracentrifugation, as described previously (Borger, V. et al, 2020, Scaled Isolation of Mesenchymal Stem/Stromal Cell-Derived Extracellular Vesicles. Curr Protoc Stem Cell Biol 55, e128; Kordelas et al., 2014, MSC-derived exosomes: a novel tool to treat therapy-refractory graft-versus-host disease. Leukemia 28, 970-973; Ludwig et al., 2018, Precipitation with polyethylene glycol followed by washing and pelleting by ultracentrifugation enriches extracellular vesicles from tissue culture supernatants in small and large scales. J Extracell Vesicles 7, 1528109). Conditioned media were harvested every 48 h. Obtained MSC-EV preparations were diluted in NaCl-HEPES buffer (Sigma-Aldrich, Taufkirchen, Germany) such that 1 mL of final samples contained the preparation yield of the conditioned media of approximately 4.0×10^7 cells.
The staining with CFSE (Thermo Fisher Scientific, Darmstadt, Germany) was based on the manufacturer's protocol. Slight modifications were required to reduce the signal from unbound CFSE. Briefly, the CFSE stock solution was diluted to a working solution of 10 μM CFSE. The solution was centrifuged three times for 10 min at 17,000 × g. Subsequently, 25 μL of MSC-EV preparations, corresponding to the amount of EVs derived from 1×10^6 MSCs, were incubated with the centrifuged CFSE solution for 20 min at 37° C. The sample was diluted 1:20 to a final volume of 1 mL prior to analysis.
The staining of MSC-EV preparations with Calcein AM followed the manufacturer's instructions. Briefly, 25 μL of MSC-EV preparations were incubated with 25 μL of a 20 μM solution of Calcein AM (Thermo Fisher Scientific) for 40 min at 37° C. The sample was diluted 1:20 to a final volume of 1 mL to reduce background noise, avoiding the requirement of a washing step.
The staining of MSC-EV preparations with BODIPY-TR-Ceramide followed the manufacturer's instructions. Briefly, 25 μL of the MSC-EV preparation, corresponding to EVs purified from […], were incubated with 25 μL of a 20 μM solution of BODIPY TR Ceramide (Thermo Fisher Scientific) for 20 min at 37° C. 450 μL of 0.9% NaCl with 10mM HEPES (0.9% NaCl, Melsungen, B. Braun; HEPES, Thermo Fisher Scientific) buffer was added and the EVs were washed by using a Centrifugal Concentrator (Vivaspin 500; Sartorius, Gottingen, Germany). The retentate was adjusted to 500 μL prior to analysis.
The staining of MSC-EV preparations with PKH67 followed the manufacturer's instructions for labeling EVs (Thermo Fisher Scientific). Briefly, using 200 μL of given MSC-EV preparations, corresponding to EVs purified from 8×10^6 cells, the solution was adjusted with Diluent C to a final volume of 1 mL. […]

Experiment [1] relates to human umbilical cord-derived mesenchymal stem cells (UC-MSCs). Put plainly: Imaging human cells labelled with dye (microscopy). The settings on record: 0.2 μM dye. It counts as cell-based. As to the method:
(§1) The cells were imaged to assess incorporation of the dyes according to the following procedure. Cell+dye 2 samples were prepared following the procedure in Example 4 with the following modifications: the cells were seeded with NHDF (not older than P9), human umbilical cord-derived mesenchymal stem cells (UC-MSCs) or bone marrow-derived MSCs (BM-MSCs); and the dye 2 was used in a final concentration of 0.2 μM. Before imaging, each well was washed with 1× HBSS (−) once. 100-200 μL of 1× HBSS (−) was added to each well prior to imaging to make sure the cells are not dried out. The cells were imaged on a Thermo Fisher Evos M5000 microscope equipped with the Texas Red filter. Routinely utilized conditions are (magnification, light, exposure, gain): 10× Texas Red, 22, 146, 105; 20× Texas Red, 12, 133, 64; 40× Texas Red, 36, 79, 40. Settings were held constant for all images taken on the same plate.

A further experiment has as its system NHDF. Kind of experiment: Imaging human cells labelled with dye (microscopy). It is filed as cell-based. Particulars: 0.2 μM dye. As to the method: as §1

Regarding `CCCCCCCCCCCCCCCCCCN(C)C(=O)c1ccccc1-c1c2ccc(=[N+](CC)CC)cc-2oc2cc(N(CC)CC)ccc12.[Cl-]` [Dye 2, Rhodamine B N-methyloctadecylamide], the “FLD area (EV + dye)” value with platelet-derived EVs (1 hr 37° C., void peak area, 562 nm/583 nm (Ex/Em)) was determined as 2493643. The “Area FLD/Area UV (EV + dye)” value in the experiment with platelet-derived EVs (higher ratio = greater incorporation) worked out at 4.50. Besides, the “labelling of sEVs in MSC-EV preparations (conclusion)” value with MSC-EVs (IFCM, with anti-CD9, anti-CD63, anti-CD81 counterstaining where done) is on record as “successfully labels most of the sEVs”. The “labelled objects in MSC-EV preparations (FIG. 8)” value in the experiment on MSC-EVs (dye + MSC-EVs) is on record as “solid populations of labelled objects were observed”. Also, in experiment [1], the “labelling of cells (microscopy, FIG. 3(b))” value is “capable of labelling”. For the same molecule, in the experiment on NHDF, the “labelling of cells (microscopy, FIG. 3(a))” value is “capable of labelling”.
